Measurements: patent US20250144067A1, “PERSONALIZED STARVATION THERAPY FOR CANCER” (Faeth Therapeutics, Inc., priority 2021, published 2025)
Read-outs that look alike come from different tables or passages of the source.

Key:
[1] = system: NCI-H292 lung cancer cells; assay: FDA drug screening, complete media vs cholesterol-free media without statin (TABLE 1); assay type: cell-based, human
[2] = system: NCI-H292 lung cancer cells; assay: FDA drug screening, complete media vs cholesterol-free media with simvastatin (TABLE 2); assay type: cell-based, human
[3] = Complete minus Cholesterol-free, […]
[4] = NCI-H292 cells, FDA drug library screen, cholesterol-free media without statin
[5] = NCI-H292 cells, FDA drug library screen, complete media
[6] = NCI-H292 cells, cholesterol-free media with simvastatin 0.04 μM, FDA drug library screen (TABLE 2)
[7] = NCI-H292 cells, complete media, FDA drug library screen (TABLE 2)
[8] = complete media minus cholesterol-free media + simvastatin (0.04 μM), […]
[9] = NCI-H292 cells, cholesterol-free media without statin, FDA drug library screen
[10] = NCI-H292 cells, complete media, FDA drug library screen
[11] = NCI-H292 cells, cholesterol-free media without statin
[12] = complete media minus cholesterol-free media + simvastatin, […]
[13] = complete media vs cholesterol-free media + simvastatin (0.04 μM), […]
[14] = Complete minus Cholesterol-free, greater than 0 enhanced anti-cancer activity, about 0 neutral, below 0 antagonists
[15] = NCI-H292 cells in complete media
[16] = complete media minus cholesterol-free media + simvastatin, >0 enhanced anti-cancer activity, about 0 neutral, <0 antagonist
[17] = NCI-H292 cells in cholesterol-free media without statin
[18] = complete media minus cholesterol-free media + simvastatin (0.04 μM), >0 enhanced anti-cancer activity, about 0 neutral, <0 antagonist
[19] = complete vs cholesterol-free media, […]
[20] = NCI-H292 cells, drug in cholesterol-free media with simvastatin 0.04 μM
[21] = NCI-H292 cells, drug in complete media
[22] = Complete minus Cholesterol-free, >0 enhanced anti-cancer activity, about 0 neutral, <0 antagonist
[23] = NCI-H292 cells, FDA drug library screen, cholesterol-free media with simvastatin 0.04 μM
[24] = complete media vs cholesterol-free media + simvastatin (0.04 μM), >0 enhanced anti-cancer activity, about 0 neutral, <0 antagonist

Substance: Gramicidin
- Difference [1, 3]: −0.14
- Cholesterol-free [1, 4]: 0.1906
- Complete [1, 5]: 0.04898
- Cholesterol-free media + simvastatin (0.04 μM) [2, 6]: 0.2157
- Complete Media [2, 7]: 0.2144
- Difference [2, 8]: 0.00

Substance: Guanabenz (Acetate)
- Cholesterol-free [1]: 0.8753
- Complete [1]: 0.6073
- Difference [1]: −0.27
- Cholesterol-free media + simvastatin (0.04 μM) [2]: 1.185
- Complete Media [2]: 0.9697
- Difference [2]: −0.22

Substance: Guanethidine (sulfate)
- Cholesterol-free [1]: 1.619
- Complete [1]: 1.336
- Difference [1]: −0.28
- Cholesterol-free media + simvastatin (0.04 μM) [2]: 1.914
- Complete Media [2]: 1.674
- Difference [2]: −0.24

Substance: Hemin
- Difference [1, 3]: −0.04
- Cholesterol-free [1, 9]: 0.9968
- Complete [1, 10]: 0.96
- Cholesterol-free media + simvastatin (0.04 μM) [2, 6]: 1.178
- Complete Media [2, 7]: 1.151
- Difference [2, 8]: −0.03

Substance: Heparin (Lithium salt)
- Difference [1, 3]: −0.22
- Cholesterol-free [1, 11]: 1.174
- Complete ([1]; NCI-H292 cells, complete media): 0.9566
- Complete Media ([2]; NCI-H292 cells, complete media, […]): 1.136
- Difference [2, 12]: 0.08

Substance: Heparin (sodium salt) (MW 15 kDa)
- Difference [1, 3]: −0.29
- Cholesterol-free [1, 11]: 1.451
- Complete ([1]; NCI-H292 cells, complete media): 1.156
- Complete Media [2, 5]: 1.339
- Difference [2, 12]: 0.23

Substance: Hyaluronidase
- Difference [1, 3]: −0.05
- Cholesterol-free [1, 9]: 0.9036
- Complete [1, 10]: 0.8508
- Cholesterol-free media + simvastatin (0.04 μM) ([2]; NCI-H292 cells, FDA library drug in cholesterol-free media with simvastatin 0.04 μM): 1.288
- Complete Media ([2]; NCI-H292 cells, FDA library drug in complete media): 1.022
- Difference [2, 13]: −0.27

Substance: Hydrocortisone hemisuccinate
- Difference [1, 14]: −0.57
- Complete [1, 15]: 0.5102
- Cholesterol-free media + simvastatin (0.04 μM) ([2]; NCI-H292 cells, cholesterol-free media with simvastatin 0.04 μM, cell growth value in FDA drug screen): 0.9423
- Complete Media ([2]; NCI-H292 cells, complete media, cell growth value in FDA drug screen): 1.019
- Difference [2, 16]: 0.08

Substance: Ibutilide (fumarate)
- Difference [1, 14]: −1.13
- Cholesterol-free [1, 17]: 1.969
- Complete [1, 15]: 0.8391
- Cholesterol-free media + simvastatin (0.04 μM) [2, 6]: 1.045
- Difference [2, 18]: −0.02

Substance: Icatibant (acetate)
- Cholesterol-free [1, 11]: 1.121
- Complete ([1]; NCI-H292 cells, complete media): 0.7693
- Difference [1, 19]: −0.35
- Cholesterol-free media + simvastatin (0.04 μM) [2, 20]: 1.025
- Complete Media [2, 21]: 0.7948
- Difference [2, 13]: −0.23

Substance: Ifenprodil (tartrate)
- Difference [1, 22]: 0.02
- Cholesterol-free [1, 9]: 0.8921
- Complete [1, 10]: 0.9115
- Cholesterol-free media + simvastatin (0.04 μM) [2, 23]: 0.4918
- Difference [2, 16]: 0.57

Substance: Imatinib (Mesylate)
- Cholesterol-free [1, 9]: 0.5677
- Complete [1, 10]: 1.017
- Difference ([1]; complete vs cholesterol-free media, >0 enhanced anti-cancer activity, about 0 neutral, <0 antagonist): 0.45
- Cholesterol-free media + simvastatin (0.04 μM) [2, 23]: 1.089
- Complete Media [2, 5]: 0.9411
- Difference [2, 24]: −0.15

Substance: Indacaterol (maleate)
- Difference [1, 3]: −0.20
- Cholesterol-free [1, 11]: 1.314
- Complete ([1]; NCI-H292 cells, complete media): 1.116
- Cholesterol-free media + simvastatin (0.04 μM) [2, 23]: 1.032
- Complete Media [2, 5]: 0.9157
- Difference [2, 13]: −0.12

Substance: Indinavir (sulfate)
- Difference [1, 14]: −0.65
- Cholesterol-free [1, 17]: 1.599
- Complete [1, 15]: 0.946
- Cholesterol-free media + simvastatin (0.04 μM) [2, 6]: 0.8636
- Difference [2, 18]: 0.01

Substance: Inulin
- Difference [1, 3]: −0.02
- Cholesterol-free [1, 9]: 0.9221
- Complete [1, 10]: 0.9055
- Cholesterol-free media + simvastatin (0.04 μM) [2, 20]: 1.179
- Complete Media [2, 21]: 0.9318
- Difference [2, 13]: −0.25

Substance: Iproniazid (phosphate)
- Difference [1, 22]: −0.26
- Complete ([1]; NCI-H292 cells, complete media): 0.8468
- Difference [2, 24]: −0.09

Substance: Isoconazole (nitrate)
- Difference [1, 3]: −0.15
- Cholesterol-free [1, 4]: 1.53
- Complete [1, 5]: 1.383
- Cholesterol-free media + simvastatin (0.04 μM) [2, 23]: 0.3001
- Complete Media [2, 5]: 0.7337
- Difference [2, 12]: 0.43

Substance: Kanamycin (sulfate)
- Cholesterol-free [1, 11]: 1.851
- Complete ([1]; NCI-H292 cells, complete media): 1.486
- Difference [1, 19]: −0.36
- Cholesterol-free media + simvastatin (0.04 μM) [2, 23]: 1.825
- Complete Media [2, 5]: 1.703
- Difference [2, 13]: −0.12

Substance: Ketanserin (tartrate)
- Difference [1, 22]: 0.03
- Cholesterol-free [1, 9]: 0.9853
- Complete [1, 10]: 1.019
- Cholesterol-free media + simvastatin (0.04 μM) [2, 20]: 1.267
- Difference [2, 24]: −0.22
